Experiments:
human iPS cells = settings: added to the medium; cells dispersed into single cells or clusters of several to several dozen cells; cited from earlier work
Tic-FX cells [1] = experiment: Influence on proliferation of iPS cells in the presence of ROCK inhibitor (suspension culture); assay type: cell-based, human; settings: Y-27632 at 1 μM, 3 μM or 10 μM in hESF-FX medium
Experimental: In the following Examples, a medium obtained by mixing the following components in the amounts shown in Table 1 which had been sterilized with a […] into mESF Basal Medium (manufactured by Wako Pure Chemical Industries, Ltd., 136-17805) was used as hESF-FX medium. As the iPS cells, Tic-FX cells [a cell line obtained by conditioning iPS cells, line Tic (JCRB1331) to a feeder-free xeno-free culture (FX)] were used. A ROCK inhibitor (Y-27632) was dissolved in the hESF-FX medium at 1 μM, 3 μM or 10μM. The media each in an amount of 3 mL were put into an ultra-low attachment 6-well plate (manufactured by Corning Incorporated), and the Tic-FX cells were cultured in the presence of 10% CO2 at 37° C. (suspension culture). The plate was observed after one day, three days and five days of cultivation. […] The numbers of the cells per well and the viability of the cells were measured after five days of cultivation.

Tic-FX cells [2] = experiment: Real-time PCR of undifferentiation, naive type-specific and differentiation marker genes in cells of Example 1; assay type: cell-based, human; settings: five days, relative to GAPDH; for expression level of NCAM / expression level of naive type-specific STELLA gene: versus control; for expression level of NANOG / expression level of OCT3/4: versus control Tic-FX
Experimental: The expression of marker genes was examined by real-time PCR. Real-time PCR was conducted using a real-time PCR system (7300 manufactured by Applied Biosystems) by the following reaction procedures using the following primers. 95° C. 30 seconds→[(95° C. 5 seconds→60° C. 31 seconds)×40 cycles]→Melting Cycle Using the cells cultured in Example 1, the expression levels of NANOG and OCT3/4, which are undifferentiation marker genes, […], which is a naive type-specific marker gene, and NCAM, which is a neuronal differentiation-specific marker gene, in the cells after five days of cultivation were examined by the real-time PCR. In FIG. 3A to FIG. 3D, the vertical axes each indicate the ratio of the expression level of the target gene of the sample to that of GAPDH (glyceraldehyde-3-phosphate dehydrogenase), which was used as the internal standard. Specifically, the values in the graphs each mean the relative value (unit is fold) of the DNA amount before the amplification determined from the difference between the Cp value of GAPDH and the Cp value of the target gene. Here, the internal standard is a gene whose expression level is always constant independently of the state of the cells. The Cp value is the number of cycles which are necessary to amplify DNA to the amount that can be detected with a measurement device when the DNA is amplified by PCR reaction (theoretically, the DNA amount doubles in one cycle).

Tic-FX cells [3] = experiment: Real-time PCR of pluripotency markers in cells proliferated with inhibitors; assay type: cell-based, human; settings: 40 ng/mL FGF2, versus control Tic-FX
Excerpt: Cells cultured in the basal medium were used as the control (indicated by Tic-FX in FIG. 7A and FIG. 7B).

Tic-FX cells [4] = experiment: Culturing of iPS cells in the presence of low molecular weight compounds (cell count); assay type: cell-based, human; settings: 40 ng/mL FGF2, five days
Experimental: Media were produced by adding 1 μM of Y-27632, 20 ng/mL of LIF and 40 ng/mL of FGF2 to the basal medium, and media were produced by adding the following inhibitors to the media at concentrations of 1 μM (PD0325901), 0.3 μM (CHIR99021), 0.5 μM (SB590885), 1 μM (WH-4-023), 10 μM (SP600125), 10 μM (SB203580), 5 μM (Go6983), 5 μM (GF109203X), 2 μM (Porsomorphin) or 400 ng/mL (Noggin) each. The Tic-FX cells were proliferated in suspension culture in ultra-low attachment 6-well plates (manufactured by Coming Incorporated) containing the media in the presence of 10% CO2 at 37° C. The cells were cultured for five days, and the cells were counted. In FIG. 6, “−” indicates the results using the medium to which no inhibitor was added.

[5] = 0.3 μM added to medium with 1 μM Y-27632, 20 ng/mL LIF
[6] = 400 ng/mL added to medium with 1 μM Y-27632, 20 ng/mL LIF

In the case of `C[C@@H](N)[C@H]1CC[C@H](C(=O)Nc2ccncc2)CC1.Cl.Cl` [Y-27632, (+)-(R)-trans-4-(1-aminoethyl)-N-(4-pyridyl)cyclohexanecarboxamide dihydrochloride], the “apoptosis of human iPS cells” value (human iPS cells) is listed as “suppresses the apoptosis”, the intercellular adhesion (human iPS cells) is listed as “promotes the intercellular adhesion” and the “number of the cells per well” value (Tic-FX cells [1]; after five days of cultivation) is listed as “increased as the concentration of the ROCK inhibitor was higher”. For the same molecule, the “viability of the cells” value (Tic-FX cells [1]; after five days of cultivation) was “increased as the concentration of the ROCK inhibitor was higher”, the “number of the cells (micrographs, FIG. 1A and FIG. 1B)” value (Tic-FX cells [1]; observed after one, three and five days) was “increased as the concentration of the ROCK inhibitor was higher” and the “expression level of NCAM” value (Tic-FX cells [2]; 1 μM) was “almost the same as that of the control”. For the same molecule, the “expression level of naive type-specific STELLA gene” value (Tic-FX cells [2]; 1 μM) was “higher than that of the control”, the “expression level of NANOG” value (Tic-FX cells [2]; 1 μM) was “higher than those of the control” and the “expression level of OCT3/4” value (Tic-FX cells [2]; 1 μM) was “higher than those of the control”. The “expression level of NCAM” value (Tic-FX cells [2]; 3 μM) was “higher than that of the control”, the “expression level of naive type-specific STELLA gene” value (Tic-FX cells [2]; 3 μM) was “higher than that of the control” and the “expression level of NANOG” value (Tic-FX cells [2]; 3 μM) was “higher than those of the control”. The “expression level of OCT3/4” value (Tic-FX cells [2]; 3 μM) was “higher than those of the control”, the “expression level of NCAM” value (Tic-FX cells [2]; 10 μM) was “higher than that of the control” and the “expression level of naive type-specific STELLA gene” value (Tic-FX cells [2]; 10 μM) was “slightly higher than that of the control”. For the same molecule, the “expression level of NANOG” value (Tic-FX cells [2]; 10 μM) was “lower than those of the control” and the “expression level of OCT3/4” value (Tic-FX cells [2]; 10 μM) was “lower than those of the control”.

With `Cc1c[nH]c(-c2cnc(NCCNc3ccc(C#N)cn3)nc2-c2ccc(Cl)cc2Cl)n1` [CHIR99021, 6-{2-[4-(2,4-dichloro-phenyl)-5-(4-methyl-1H-imidazol-2-yl)-pyrimidin-2-ylamino]-ethylamino}-nicotinonitrile] the “expression level of NANOG” value (Tic-FX cells [3]; [5]) was “increased”, the “expression level of OCT3/4” value (Tic-FX cells [3]; [5]) was “increased” and the “growth rate of the cells” value (Tic-FX cells [4]; [5]) was “high”.

B1: Noggin: Noggin, Recombinant Human, manufactured by R&D Systems; endogenous protein that inhibits BMP (protein, UniProt Q13253 28-232, looked up)
Noggin: QHYLHIRPAPSDNLPLVDLIEHPDPIFDPKEKDLNETLLRSLLGGHYDPGFMATSPPEDRPGGGGGAAGGAEDLAELDQLLRQRPSGAMPSEIKGLEFSEGLAQGKKQRLSKKLRRKLQMWLWSQTFCPVLYAWNDLGSRFWPRYVKVGSCFSKRSCSVPEGMVCKPSKSVHLTVLRWRCQRRGGQRCGWIPIQYPIISECKCSC
With B1 the “expression level of NANOG” value (Tic-FX cells [3]; [6]) was “increased”, the “expression level of OCT3/4” value (Tic-FX cells [3]; [6]) was “increased” and the “growth rate of the cells” value (Tic-FX cells [4]; [6]) was “high”.

Reference: patent US20190127707A1, “MEDIUM FOR CULTURING NAIVE PLURIPOTENT STEM CELLS AND METHOD FOR CULTURING PLURIPOTENT STEM CELLS” (KYOWA HAKKO BIO CO., LTD., priority 2016, published 2019)
